Data reported in patent US20130116263A1, “PAK INHIBITORS FOR THE TREATMENT OF CELL PROLIFERATIVE DISORDERS” (AFRAXIS, INC., priority 2011, published 2013).
pIC50: −log10 of the molar value. Where two headings read alike, the source gives them in different places.

What was measured:
Type in all cases: biochemical
PAK4 = PAK4 (Homo sapiens, UniProt O96013); test: In vitro PAK inhibition assay (Z'-LYTE, SelectScreen), PAK4
Method: (§1) Compounds are screened in 1% DMSO (final) in the well. For 10 point titrations, 3-fold serial dilutions are conducted. All Peptide/Kinase Mixtures are diluted to a 2× working concentration in the appropriate Kinase Buffer
The 2×PAK-4/Ser/Thr 20 mixture is prepared in 50 mM HEPES pH 7.5, 0.01% BRIJ-35, 10 mM MgCl2, 1 mM EGTA. The final 10 μL Kinase Reaction consists of 0.1-0.75 ng PAK-4 and 2 μM Ser/Thr 20 in 50 mM HEPES pH 7.5, 0.01% BRIJ-35, 10 mM MgCl2, 1 mM EGTA. After the 1 hour Kinase Reaction incubation, 5 μL of a 1:256 dilution of Development Reagent A is added.
(§2) 1. Add the following solutions to a well in a 384-well plate: • 2.5 μL of 4× Test Compound OR (100 nL 100× Test Compound plus 2.4 μL kinase buffer) • 5 μL of 2× Peptide/Kinase (PAK) Mixture • 2.5 μL of 4×ATP Solution
(§3) 3. Incubate the PAK Kinase Reaction at room temperature for 60-minutes
(§4) 4. Add 5 μL of Development Reagent Solution to each well
(§5) 6. Incubate the Development Reaction for 60-minutes
(§6) 7. Determine the fluorescence using a fluorescence plate reader
SelectScreen® Kinase Profiling Service uses XLfit from IDBS. The dose response curve is curve fit to model number 205 (sigmoidal dose-response model).
The table below provides specifications and data around each kinase. The representative IC50 value with a known inhibitor for each kinase was determined at the ATP bin nearest to the ATP Km app.

PAK2 (PAK65) = PAK2 (PAK65) (Homo sapiens, UniProt Q13177); test: In vitro PAK inhibition assay (Z'-LYTE, SelectScreen), PAK2
Chain of PAK2 (PAK65) (Q13177 whole entry): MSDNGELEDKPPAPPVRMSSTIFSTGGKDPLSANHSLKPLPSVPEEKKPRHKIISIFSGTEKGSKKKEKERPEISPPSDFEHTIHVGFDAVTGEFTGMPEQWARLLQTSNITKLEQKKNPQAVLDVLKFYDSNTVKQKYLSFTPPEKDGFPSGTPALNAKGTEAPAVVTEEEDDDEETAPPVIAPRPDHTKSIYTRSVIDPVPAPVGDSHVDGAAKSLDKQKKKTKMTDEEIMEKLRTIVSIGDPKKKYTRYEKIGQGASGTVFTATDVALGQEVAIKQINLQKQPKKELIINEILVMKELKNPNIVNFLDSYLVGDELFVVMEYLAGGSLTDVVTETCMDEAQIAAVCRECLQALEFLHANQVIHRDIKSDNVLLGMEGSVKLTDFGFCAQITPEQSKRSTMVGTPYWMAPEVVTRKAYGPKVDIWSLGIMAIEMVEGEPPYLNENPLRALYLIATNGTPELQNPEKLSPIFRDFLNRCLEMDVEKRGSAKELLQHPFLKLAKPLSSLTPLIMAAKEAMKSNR
Method: as §1
The 2×PAK2 (PAK65)/Ser/Thr 20 mixture is prepared in 50 mM HEPES pH 7.5, 0.01% BRIJ-35, 10 mM MgCl2, 1 mM EGTA. The final 10 μL Kinase Reaction consists of 0.29-6 ng PAK2 (PAK65) and 2 μM Ser/Thr 20 in 50 mM HEPES pH 7.5, 0.01% BRIJ-35, 10 mM MgCl2, 1 mM EGTA.
as §2, §3, §4, §5, §6
(§7) SelectScreen® Kinase Profiling Service uses XLfit from IDBS.
(§8) The representative IC50 value with a known inhibitor for each kinase was determined at the ATP bin nearest to the ATP Km app.

PAK1 = PAK1 (Homo sapiens, UniProt Q13153); test: In vitro PAK inhibition assay (Z'-LYTE, SelectScreen), PAK1
Chain of PAK1 (Q13153 whole entry): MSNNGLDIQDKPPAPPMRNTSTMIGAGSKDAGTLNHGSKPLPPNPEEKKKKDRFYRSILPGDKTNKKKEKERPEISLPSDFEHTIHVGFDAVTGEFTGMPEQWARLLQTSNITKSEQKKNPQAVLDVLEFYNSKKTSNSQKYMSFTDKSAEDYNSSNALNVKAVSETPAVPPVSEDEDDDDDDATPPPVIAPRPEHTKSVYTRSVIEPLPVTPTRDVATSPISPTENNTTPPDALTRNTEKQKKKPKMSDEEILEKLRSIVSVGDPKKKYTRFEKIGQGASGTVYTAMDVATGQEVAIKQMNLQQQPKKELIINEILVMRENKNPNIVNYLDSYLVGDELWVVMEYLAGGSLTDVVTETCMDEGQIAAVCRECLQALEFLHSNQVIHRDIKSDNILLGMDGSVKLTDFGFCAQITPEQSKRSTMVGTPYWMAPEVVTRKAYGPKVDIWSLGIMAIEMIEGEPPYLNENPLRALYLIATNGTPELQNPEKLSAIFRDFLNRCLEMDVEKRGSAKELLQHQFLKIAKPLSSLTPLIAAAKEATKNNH
Method: as §1
The 2×PAK1/Ser/Thr 19 mixture is prepared in 50 mM HEPES pH 7.5, 0.01% BRIJ-35, 10 mM MgCl2, 1 mM EGTA.
as §2, §3, §4, §5, §6, §7, §8

PAK3 = PAK3 (Homo sapiens, UniProt O75914); test: In vitro PAK inhibition assay (Z'-LYTE, SelectScreen), PAK3; details: for pIC50: read-out: PAK3 IC50
Chain of PAK3 (O75914 1-544 isoform O75914-2): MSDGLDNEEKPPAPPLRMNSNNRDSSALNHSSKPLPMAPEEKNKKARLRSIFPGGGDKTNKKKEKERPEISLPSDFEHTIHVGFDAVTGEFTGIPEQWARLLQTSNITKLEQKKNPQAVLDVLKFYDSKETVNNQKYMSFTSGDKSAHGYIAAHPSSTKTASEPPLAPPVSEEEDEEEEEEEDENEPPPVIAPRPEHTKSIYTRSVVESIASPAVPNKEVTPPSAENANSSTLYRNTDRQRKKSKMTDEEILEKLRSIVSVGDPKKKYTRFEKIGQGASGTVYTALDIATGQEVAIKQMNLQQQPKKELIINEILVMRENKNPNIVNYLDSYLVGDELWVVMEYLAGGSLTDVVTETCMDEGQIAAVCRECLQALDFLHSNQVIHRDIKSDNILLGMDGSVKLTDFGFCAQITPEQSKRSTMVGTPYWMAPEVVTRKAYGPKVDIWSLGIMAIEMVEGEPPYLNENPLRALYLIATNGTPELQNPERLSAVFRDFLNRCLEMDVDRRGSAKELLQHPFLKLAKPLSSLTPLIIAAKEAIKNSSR
Method: as §1
The 2×PAK3/Ser/Thr 20 mixture is prepared in 50 mM HEPES pH 7.5, 0.01% BRIJ-35, 10 mM MgCl2, 1 mM EGTA.
as §2, §3, §4, §5, §6, §7, §8

Chain of PAK4 (O96013 whole entry): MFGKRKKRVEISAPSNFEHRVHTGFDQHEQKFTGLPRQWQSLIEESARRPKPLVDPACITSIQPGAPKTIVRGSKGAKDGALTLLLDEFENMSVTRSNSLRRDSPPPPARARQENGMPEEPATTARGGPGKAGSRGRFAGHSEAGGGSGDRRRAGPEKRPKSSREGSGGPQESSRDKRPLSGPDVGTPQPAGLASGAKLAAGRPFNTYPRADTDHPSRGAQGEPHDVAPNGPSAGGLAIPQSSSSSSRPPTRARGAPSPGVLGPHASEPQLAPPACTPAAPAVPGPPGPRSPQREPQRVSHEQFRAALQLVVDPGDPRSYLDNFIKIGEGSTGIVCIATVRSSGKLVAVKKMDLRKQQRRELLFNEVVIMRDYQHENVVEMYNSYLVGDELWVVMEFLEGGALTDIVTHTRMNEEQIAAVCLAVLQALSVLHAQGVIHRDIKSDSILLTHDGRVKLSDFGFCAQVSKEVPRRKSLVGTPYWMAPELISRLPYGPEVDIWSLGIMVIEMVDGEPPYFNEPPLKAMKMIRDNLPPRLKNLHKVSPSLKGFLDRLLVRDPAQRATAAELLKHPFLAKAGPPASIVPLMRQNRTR

| Structure (SMILES) | pIC50 (PAK4) | pIC50 (PAK2 (PAK65); read-out: PAK2 IC50) | pIC50 (PAK1; read-out: PAK1 IC50) | pIC50 (PAK3) | pIC50 (PAK2 (PAK65)) | pIC50 (PAK1) | IC50 (PAK3; PAK3 IC50 (nM)) [nM] |
| --- | --- | --- | --- | --- | --- | --- | --- |
| CCn1c(=O)c(-c2ccc(-c3nccnc3C)cc2Cl)cc2cnc(NC3CCCN(C)C3)nc21 (centres unmarked) [Example 81] | < 5.30 | 6.30 to 7.30 | 6.30 to 7.30 | < 5.30 |  |  |  |
| CCn1c(=O)c(-c2ccc(-c3nccnc3C)cc2Cl)cc2cnc(NCCN(C)C)nc21 [Example 13] | < 5.30 | 5.30 to 6.30 | 5.30 to 6.30 | 5.30 to 6.30 |  |  |  |
| CCn1c(=O)c(-c2ccc(-c3cncc(C)n3)cc2Cl)cc2cnc(N[C@H]3CCCNC3=O)nc21 [Example 69] | < 5.30 | < 5.30 | < 5.30 | < 5.30 |  |  |  |
| Cc1cncc(-c2ccc(-c3cc4cnc(N[C@H]5CCOC5)nc4n(C4CCN(C)CC4)c3=O)c(Cl)c2)n1 [Example 108] | < 5.30 | 6.30 to 7.30 | 6.30 to 7.30 | 6.30 to 7.30 |  |  |  |
| CCn1c(=O)c(-c2ccc(-c3cncc(C)n3)cc2Cl)cc2cnc(N[C@@H]3CCOC3)nc21 [Example 28] | < 5.30 | > 7.30 | > 7.30 | 6.30 to 7.30 |  |  |  |
| Cc1cncc(-c2ccc(-c3cc4cnc(NC5CCOCC5)nc4n(Cc4ccccc4F)c3=O)c(Cl)c2)n1 [Example 36] | < 5.30 | 6.30 to 7.30 | 6.30 to 7.30 | 6.30 to 7.30 |  |  |  |
| Cc1cncc(-c2ccc(-c3cc4cnc(NC5CCCCC5)nc4n([C@H]4CC[C@H](N)CC4)c3=O)c(Cl)c2)n1 [Example 114] | < 5.30 | > 7.30 | > 7.30 | 6.30 to 7.30 |  |  |  |
| CCn1c(=O)c(-c2ccc(-c3nccnc3C)cc2Cl)cc2cnc(N[C@@H]3CCOC(C)(C)C3)nc21 (stereo in doubt) [Example 76] | < 5.30 | > 7.30 | > 7.30 | 6.30 to 7.30 |  |  |  |
| CCn1c(=O)c(-c2ccc(-c3cccnc3F)cc2Cl)cc2cnc(N[C@@H]3CCOC3)nc21 [Example 40] | < 5.30 | 6.30 to 7.30 | > 7.30 | 6.30 to 7.30 |  |  |  |
| CCn1c(=O)c(-c2ccc(-c3cccnc3F)cc2Cl)cc2cnc(NC3CCOCC3)nc21 [Example 12] | < 5.30 | 6.30 to 7.30 | > 7.30 | > 7.30 |  |  |  |
| Cc1cncc(-c2ccc(-c3cc4cnc(N[C@@H]5CCOC5)nc4n([C@H]4CC[C@H](N)CC4)c3=O)c(Cl)c2)n1 [Example 109] | < 5.30 | > 7.30 | > 7.30 | 6.30 to 7.30 |  |  |  |
| CCn1c(=O)c(-c2ccc(-c3cccnc3C)cc2Cl)cc2cnc(N[C@@H]3CCOC3)nc21 [Example 59] | < 5.30 | 5.30 to 6.30 | 5.30 to 6.30 | 5.30 to 6.30 |  |  |  |
| Cc1nccnc1-c1ccc(-c2cc3cnc(NC4CCOCC4)nc3[nH]c2=O)c(Cl)c1 [Example 10] | < 5.30 | 6.30 to 7.30 | 6.30 to 7.30 | 5.30 to 6.30 |  |  |  |
| CCn1c(=O)c(-c2ccc(-c3cncc(C)n3)cc2Cl)cc2cnc(NCCCC3CCN(C)CC3)nc21 [Example 68] | < 5.30 | 6.30 to 7.30 | 6.30 to 7.30 | 6.30 to 7.30 |  |  |  |
| Cc1nc(-c2ccc(-c3cc4cnc(NC5CCOCC5)nc4n(Cc4ccccc4C(F)(F)F)c3=O)c(Cl)c2)no1 [Example 24] | < 5.30 |  |  |  | 6.30 to 7.30 | 6.30 to 7.30 | 50 to 500 |
| CCn1c(=O)c(-c2ccc(-c3cccnc3)cc2Cl)cc2cnc(NC3CCOCC3)nc21 [Example 44] | < 5.30 | 6.30 to 7.30 | 6.30 to 7.30 | 6.30 to 7.30 |  |  |  |
| O=c1c(-c2ccc(-c3ccncn3)cc2Cl)cc2cnc(NC3CCOCC3)nc2n1Cc1ccccc1C(F)(F)F [Example 23] | < 5.30 | 6.30 to 7.30 | 6.30 to 7.30 | 6.30 to 7.30 |  |  |  |
